According to ChEMBL document CHEMBL3885861, “Open TG-GATES”:

Species: Rattus norvegicus
Test: Open TG-GATES - Regimen: Single
Format: toxicity, organism-based, Sprague-Dawley
Set-up: regimen Single, gender Male, age 6 weeks
Settings: in vivo, po, 3 mg/kg, route gavage, dose level Low; for APTT / Bas / Eos / Fbg / Hb / Ht / Lym / MCH / MCHC / MCV / Mono / Neu / PT / Plat / RBC / Ret / WBC: tissue Blood; for KIDNEY_L / KIDNEY_R / KIDNEY_TOTAL: tissue Kidney; for LIVER: tissue Liver; for A/G / ALP / ALT / AST / BUN / CRE / Ca / Cl / DBIL / GLC / IP / K / LDH / Na / PL / RALB / TBIL / TC / TG / TP / gamma-GTP: tissue Plasma

CN(C)CCC(c1ccc(Cl)cc1)c1ccccn1 (configuration not stated) [CHLORPHENIRAMINE]
TERMINAL_BW (3 h): 195.7 g | APTT (3 h): 18 s | Bas (3 h): 0% | Eos (3 h): 0.6% | Fbg (3 h): 281.4 mg/dL | Hb (3 h): 13.4 g/dL | Ht (3 h): 41.7% | Lym (3 h): 72.6% | MCH (3 h): 20.9 pg | MCHC (3 h): 32.2% | MCV (3 h): 64.9 fL | Mono (3 h): 3.4% | Neu (3 h): 22.4% | PT (3 h): 15 s | Plat (3 h): 124.5 x10_4/uL | RBC (3 h): 642.6 x10_4/ul | Ret (3 h): 8.9% | WBC (3 h): 84.7 x10_2/uL | KIDNEY_L (3 h): 0.9 g | KIDNEY_R (3 h): 0.8 g | KIDNEY_TOTAL (3 h): 1.7 g | LIVER (3 h): 8.5 g | A/G (3 h): 0.9 | ALP (3 h): 1618.2 IU/L | ALT (3 h): 47 IU/L | AST (3 h): 76 IU/L | BUN (3 h): 9.2 mg/dL | CRE (3 h): 0.2 mg/dL | Ca (3 h): 10.9 mg/dL | Cl (3 h): 106 meq/L | DBIL (3 h): 0.01 mg/dL | GLC (3 h): 179.8 mg/dL | IP (3 h): 10.4 mg/dL | K (3 h): 4.1 meq/L | LDH (3 h): 195 IU/L | Na (3 h): 143.6 meq/L | PL (3 h): 140.2 mg/dL | RALB (3 h): 2.5 g/dL | TBIL (3 h): 0.048 mg/dL | TC (3 h): 77.8 mg/dL | TG (3 h): 53.4 mg/dL | TP (3 h): 5.5 g/dL | gamma-GTP (3 h): 2 IU/L | TERMINAL_BW (6 h): 194.4 g | APTT (6 h): 20 s | Bas (6 h): 0.4% | Eos (6 h): 1% | Fbg (6 h): 296.2 mg/dL | Hb (6 h): 13.2 g/dL | Ht (6 h): 41.3% | Lym (6 h): 75.8% | MCH (6 h): 20.8 pg | MCHC (6 h): 31.9% | MCV (6 h): 65.1 fL | Mono (6 h): 3.4% | Neu (6 h): 19.2% | PT (6 h): 14.9 s | Plat (6 h): 119.3 x10_4/uL | RBC (6 h): 633.8 x10_4/ul | Ret (6 h): 9.5% | WBC (6 h): 83.2 x10_2/uL | KIDNEY_L (6 h): 0.9 g | KIDNEY_R (6 h): 0.9 g | KIDNEY_TOTAL (6 h): 1.8 g | LIVER (6 h): 8.1 g | A/G (6 h): 0.9 | ALP (6 h): 1343.4 IU/L | ALT (6 h): 41.4 IU/L | AST (6 h): 71.2 IU/L | BUN (6 h): 7.8 mg/dL | CRE (6 h): 0.2 mg/dL | Ca (6 h): 10.5 mg/dL | Cl (6 h): 108.4 meq/L | DBIL (6 h): 0.004 mg/dL | GLC (6 h): 176 mg/dL | IP (6 h): 10.4 mg/dL | K (6 h): 4.1 meq/L | LDH (6 h): 200 IU/L | Na (6 h): 144.4 meq/L | PL (6 h): 150.2 mg/dL | RALB (6 h): 2.5 g/dL | TBIL (6 h): 0.052 mg/dL | TC (6 h): 89.6 mg/dL | TG (6 h): 42.6 mg/dL | TP (6 h): 5.4 g/dL | gamma-GTP (6 h): 1.4 IU/L | TERMINAL_BW (9 h): 194.2 g | APTT (9 h): 17.4 s | Bas (9 h): 0% | Eos (9 h): 1% | Fbg (9 h): 288.2 mg/dL | Hb (9 h): 12.8 g/dL | Ht (9 h): 39.6% | Lym (9 h): 77.8% | MCH (9 h): 20.9 pg | MCHC (9 h): 32.4% | MCV (9 h): 64.7 fL | Mono (9 h): 2.8% | Neu (9 h): 18% | PT (9 h): 14.8 s | Plat (9 h): 119.5 x10_4/uL | RBC (9 h): 612.4 x10_4/ul | Ret (9 h): 9.2% | WBC (9 h): 71.4 x10_2/uL | KIDNEY_L (9 h): 0.9 g | KIDNEY_R (9 h): 0.9 g | KIDNEY_TOTAL (9 h): 1.8 g | LIVER (9 h): 7.7 g | A/G (9 h): 0.9 | ALP (9 h): 1240.8 IU/L | ALT (9 h): 40.6 IU/L | AST (9 h): 71 IU/L | BUN (9 h): 8.2 mg/dL | CRE (9 h): 0.1 mg/dL | Ca (9 h): 10.3 mg/dL | Cl (9 h): 105.8 meq/L | DBIL (9 h): 0.006 mg/dL | GLC (9 h): 165.2 mg/dL | IP (9 h): 10.2 mg/dL | K (9 h): 3.9 meq/L | LDH (9 h): 139 IU/L | Na (9 h): 142.8 meq/L | PL (9 h): 143 mg/dL | RALB (9 h): 2.5 g/dL | TBIL (9 h): 0.046 mg/dL | TC (9 h): 85.4 mg/dL | TG (9 h): 37.2 mg/dL | TP (9 h): 5.3 g/dL | gamma-GTP (9 h): 1 IU/L | TERMINAL_BW (24 h): 214.2 g | APTT (24 h): 15.8 s | Bas (24 h): 0% | Eos (24 h): 1% | Fbg (24 h): 291.4 mg/dL | Hb (24 h): 12.9 g/dL | Ht (24 h): 40.3% | Lym (24 h): 78.2% | MCH (24 h): 20.4 pg | MCHC (24 h): 32.1% | MCV (24 h): 63.5 fL | Mono (24 h): 3% | Neu (24 h): 16.4% | PT (24 h): 14.6 s | Plat (24 h): 123.3 x10_4/uL | RBC (24 h): 634.4 x10_4/ul | Ret (24 h): 7.9% | WBC (24 h): 88.7 x10_2/uL | KIDNEY_L (24 h): 0.9 g | KIDNEY_R (24 h): 0.9 g | KIDNEY_TOTAL (24 h): 1.8 g | LIVER (24 h): 9.9 g | A/G (24 h): 0.9 | ALP (24 h): 1572.2 IU/L | ALT (24 h): 47.4 IU/L | AST (24 h): 72.6 IU/L | BUN (24 h): 14.4 mg/dL | CRE (24 h): 0.2 mg/dL | Ca (24 h): 11.2 mg/dL | Cl (24 h): 105.6 meq/L | DBIL (24 h): 0.016 mg/dL | GLC (24 h): 188.6 mg/dL | IP (24 h): 8.9 mg/dL | K (24 h): 4.5 meq/L | LDH (24 h): 131.6 IU/L | Na (24 h): 142.8 meq/L | PL (24 h): 150.4 mg/dL | RALB (24 h): 2.6 g/dL | TBIL (24 h): 0.05 mg/dL | TC (24 h): 81.6 mg/dL | TG (24 h): 80.8 mg/dL | TP (24 h): 5.7 g/dL | gamma-GTP (24 h): 1 IU/L
